Assay results from ChEMBL document CHEMBL1201862, “PubChem BioAssay data set” (2004).
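Cultured in 96-well plates, cells were exposed to test compound for 48 hours across five concentrations. GI50 = concentration required for 50% inhibition of growth.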 Calls of active or inactive are those of the source. No stated cut-off is given here; in the data, active = GI50 up to about 1.1 µM and inactive = higher.

Experiments:
Test in all cases: NCI anticancer screen, dose series, 48 h
[1] = test system: OVCAR-8
[2] = test system: 786-0
[3] = test system: CCRF-CEM
[4] = test system: OVCAR-5
[5] = test system: EKVX
[6] = test system: UO-31
[7] = test system: SNB-19
[8] = test system: NCI-H23
[9] = test system: HCT-116
[10] = test system: MOLT-4
[11] = test system: SW-620
[12] = test system: IGROV-1
[13] = test system: M19-MEL
[14] = test system: A498

Measured: GI50

OC(c1ccccc1)(c1ccccc1)c1ccncc1
inactive: [1] > 100 µM | [2] 66.1 µM | [3] > 100 µM | [4] > 100 µM | [5] > 100 µM | [6] > 100 µM | [7] > 100 µM | [8] > 100 µM | [9] > 100 µM | [10] > 100 µM | [11] > 100 µM | [12] > 100 µM | [13] > 100 µM

O=[N+]([O-])c1cc([N+](=O)[O-])c(/C=C/c2ccc(Cl)c(Cl)c2)cc1/C=C/c1ccc(Cl)c(Cl)c1
inactive: [1] 29.2 µM | [2] 24.7 µM | [3] 21.7 µM | [4] 36.1 µM | [5] 44.1 µM | [6] 17.5 µM | [7] 25.6 µM | [8] 20.4 µM | [10] 23.2 µM | [11] 28.2 µM | [12] 22.9 µM | [14] > 100 µM | [13] 21.4 µM

COC(=O)c1csnn1
inactive: [1] > 100 µM | [2] > 100 µM | [3] > 100 µM | [5] > 100 µM | [6] > 100 µM | [7] > 100 µM | [8] > 100 µM | [9] > 100 µM | [10] > 100 µM | [11] > 100 µM | [12] > 100 µM | [13] > 100 µM

CC(=O)NC(CCCNC(=O)NCCCl)C(=O)NCc1ccccc1 (stereo not drawn)
inactive: [1] > 100 µM | [2] > 100 µM | [3] > 100 µM | [5] > 100 µM | [6] > 100 µM | [7] > 100 µM | [8] > 100 µM | [9] > 100 µM | [10] > 100 µM | [11] > 100 µM | [13] > 100 µM

CN1C/C(=C\C=C\c2ccccc2)C(=O)/C(=C/C=C/c2ccccc2)C1
inactive: [1] 82.2 µM | [2] 87.3 µM | [3] 35.9 µM | [4] > 100 µM | [5] > 100 µM | [6] > 100 µM | [7] 39.6 µM | [8] > 100 µM | [9] > 100 µM | [10] 40.3 µM | [11] > 100 µM | [12] > 100 µM | [14] > 100 µM | [13] > 100 µM

C/C(=N\NC(C)(C)C)c1sc(-c2nc(C)c(/C(C)=N/NC(C)(C)C)s2)nc1C
inactive: [1] > 100 µM | [2] > 100 µM | [3] > 100 µM | [5] > 100 µM | [6] > 100 µM | [7] > 100 µM | [8] > 100 µM | [9] > 100 µM | [10] > 100 µM | [11] > 100 µM | [12] > 100 µM | [14] > 100 µM | [13] > 100 µM

CC1=C(C(=O)CC(=O)C(=O)Nc2cc(C)ccc2C)Sc2ccccc2N1
inactive: [1] 66.8 µM | [2] > 100 µM | [3] 80.9 µM | [4] > 100 µM | [5] > 100 µM | [6] > 100 µM | [7] > 100 µM | [8] > 100 µM | [9] > 100 µM | [10] 66.7 µM | [11] > 100 µM | [12] > 100 µM | [13] > 100 µM

CCOP(=O)(OCC)/C(C#N)=C/c1ccc[nH]1
inactive: [1] > 100 µM | [2] > 100 µM | [3] > 100 µM | [4] > 100 µM | [6] > 100 µM | [7] > 100 µM | [8] > 100 µM | [9] > 100 µM | [10] > 100 µM | [11] > 100 µM | [13] > 100 µM

Cc1ccc(SC2C(C)(C)N(C(C)C)P2(=O)N(C(C)C)C(C)C)cc1 (stereo not drawn)
inactive: [1] 45.5 µM | [2] 82.4 µM | [3] 31.8 µM | [4] > 100 µM | [5] 26.4 µM | [6] 46.1 µM | [7] 51.5 µM | [8] 26.7 µM | [9] 26.4 µM | [10] 30.2 µM | [11] > 25.5 µM | [12] > 86.3 µM | [14] > 100 µM | [13] 26.7 µM

CN(c1ccccc1)C1C(=O)N(c2ccccc2)C1/C=C/c1ccccc1 (stereo not drawn)
inactive: [1] > 100 µM | [2] > 100 µM | [3] > 100 µM | [4] > 100 µM | [5] > 100 µM | [6] > 100 µM | [7] > 100 µM | [8] > 100 µM | [9] > 100 µM | [10] > 100 µM | [11] > 100 µM | [12] > 100 µM | [14] 5.58 µM | [13] > 100 µM

CCOC(C[C@H](O)[C@H]1COC(=S)S1)OCC
inactive: [1] > 100 µM | [2] > 100 µM | [5] > 100 µM | [6] > 100 µM | [7] > 100 µM | [8] > 100 µM | [9] > 100 µM | [11] > 100 µM | [12] > 100 µM | [13] > 100 µM

COc1ccc(C)cc(O)c1=O
inactive: [2] 10.5 µM | [3] 10.7 µM | [4] 68.4 µM | [5] 38.8 µM | [6] 27.4 µM | [7] 95.1 µM | [8] 40.1 µM | [9] 33.7 µM | [10] 9.06 µM | [11] 44 µM | [12] 39.9 µM | [14] 38.4 µM | [13] 32.3 µM

N#Cc1ccc(/C=N\N2C(=O)c3ccccc3C2=O)cc1
inactive: [1] > 100 µM | [2] > 100 µM | [3] > 100 µM | [4] > 100 µM | [5] > 100 µM | [6] > 100 µM | [7] > 100 µM | [8] > 100 µM | [9] > 100 µM | [10] > 100 µM | [11] > 100 µM | [12] > 100 µM | [14] > 100 µM | [13] > 100 µM

N#Cc1ccc(Sc2ccccc2)cc1C#N
inactive: [1] 31 µM | [2] 28.1 µM | [3] 18.1 µM | [4] > 100 µM | [5] > 100 µM | [6] > 100 µM | [7] 39.3 µM | [8] 50.5 µM | [9] 20.7 µM | [10] > 100 µM | [12] > 100 µM | [14] > 100 µM | [13] > 100 µM

O=C1C=C(Nc2ccccc2C(=O)CC(=O)C(=O)Nc2ccc(Cl)cc2)c2ccccc2C1=O
inactive: [1] 6.59 µM | [2] 16.3 µM | [3] 3.59 µM | [4] 19.6 µM | [5] 32.4 µM | [6] 14.7 µM | [7] 14 µM | [8] 9.91 µM | [9] 6.18 µM | [10] 5.05 µM | [11] 7.11 µM | [12] 27.4 µM | [14] > 100 µM | [13] 1.95 µM

COc1cc2ccnc3c(=C(SC)SC)c(=O)c(c1OC)c23
inactive: [1] 10.6 µM | [2] 11 µM | [3] 2.86 µM | [4] 20.9 µM | [5] > 10 µM | [6] 14.6 µM | [7] 53.2 µM | [8] > 10 µM | [10] 4.6 µM | [11] 15.7 µM | [12] 21 µM | [13] 16 µM

COc1cc(=O)oc(/C=C/CO)c1C
inactive: [1] > 100 µM | [2] > 100 µM | [3] > 100 µM | [4] > 100 µM | [5] > 100 µM | [6] > 100 µM | [7] > 100 µM | [8] > 100 µM | [9] > 100 µM | [10] > 100 µM | [11] > 100 µM | [12] > 100 µM | [14] > 100 µM | [13] > 100 µM

O=C1OC(CC(=O)c2ccc(Cl)cc2Cl)C(Cl)=C1Cl (stereo not drawn)
inactive: [1] 27.2 µM | [2] 21.9 µM | [3] 25.7 µM | [4] > 45.1 µM | [5] > 54.7 µM | [6] > 42.6 µM | [7] > 49.2 µM | [8] 28.9 µM | [9] 18.2 µM | [10] 24.8 µM | [11] 19.4 µM | [12] > 41 µM | [14] > 100 µM | [13] 20 µM

CN1C/C(=C\c2ccco2)c2nc(N)nc(-c3ccco3)c2C1
inactive: [1] 75.2 µM | [2] > 100 µM | [3] 74.1 µM | [4] > 100 µM | [5] > 100 µM | [6] > 100 µM | [7] > 100 µM | [8] > 100 µM | [9] > 100 µM | [10] 48.9 µM | [11] > 100 µM | [12] > 100 µM | [14] > 100 µM | [13] > 100 µM

C1=CC=C2NCCCCCC/N=C3\C=CC=CC=C3NCCc3cccc(c3)CC/N=C/2C=C1
inactive: [1] 14.8 µM | [2] 10 µM | [3] 15.9 µM | [4] 14.4 µM | [5] 37 µM | [6] 16.7 µM | [7] 26.5 µM | [8] 13.1 µM | [9] 6.27 µM | [10] 7.78 µM | [11] 4.67 µM | [12] 16.9 µM | [13] 16.7 µM

COc1ccc2nc3cc(Cl)ccc3c(Sc3ccccc3[N+](=O)[O-])c2c1
inactive: [1] > 100 µM | [2] 75.3 µM | [3] > 100 µM | [4] > 100 µM | [5] > 100 µM | [6] > 100 µM | [7] > 100 µM | [8] > 100 µM | [9] > 100 µM | [10] > 100 µM | [11] > 100 µM | [12] > 100 µM | [14] > 100 µM | [13] > 100 µM
